“Also recorded” adds a separate entry of the source.
What was measured:
[1] = system: C5-1 antibody; experiment: C5-1 antibody immunodetection after non-reducing SDS-PAGE; assay type: in vivo, Nicotiana benthamiana; conditions: agroinfiltrated leaves; treated 24 h before infiltration; 35S-type C5-1 vector
[2] = system: C5-1 light and heavy chain mRNA; experiment: Real-time RT PCR of C5-1 light and heavy chain transcripts; assay type: in vivo, Nicotiana benthamiana; conditions: 1 mM spray, 24 h before infiltration
[3] = system: A. tumefaciens VirB1; experiment: Real-time RT PCR of VirB1 transcripts in agroinfiltrated leaves; assay type: in vivo, Agrobacterium tumefaciens; conditions: 1 mM, seven days post-treatment, Student's t-test P<0.05
Description: mRNA transcripts for C5-1 and A. tumefaciens virulence proteins VirB1 and VirE1 were assayed by real-time RT PCR using an ABI PRISM 7500 Fast real-time PCR apparatus, system version 2.0.1 (Applied Biosystems, Carlsbad Calif., U.S.A.). Total RNA was extracted from two 1-cm^2 leaf discs collected on the third main stem leaf (Robert et al., 2013) using the Qiagen RNeasy plant mini kit (Qiagen), following the supplier's instructions. RNA samples were treated with DNase I (Roche Diagnostics) to remove contaminant DNA and assessed for quality and quantity using a Nanodrop® ND-1000 spectrophotometer (NanoDrop Technologies, Wilmington Del., USA). First-strand cDNA was synthesized from 500 ng of total RNA using 4 units of Omniscript reverse transcriptase (Qiagen) and 1 μM of oligo-dT (15) nucleotides (Roche). PCR reactions contained 10 μl of Fast SYBR Green PCR Master Mix (Applied Biosystems), 2 μl of cDNA template, and 2.5 μl each of appropriate forward and reverse primers at 625 nM final concentration (Table 1). A no-template mixture control was included in each 96-well plate. Amplification rounds consisted of a 20-s denaturation step at 95° C., followed by 40 two-step cycles of 3 s at 95° C. and 30 s at 60° C. […]

[4] = system: N. benthamiana leaves; experiment: Leaf protein profile, Coomassie blue-stained SDS-PAGE and MS/MS identification; assay type: in vivo, Nicotiana benthamiana; conditions: uninfiltrated leaves; ~30-kDa, ~25-kDa and ~6-kDa mass ranges; seven days post-treatment
Description: Forty-two day-old N. benthamiana plants grown in greenhouse were used for the experiments. Each plant was sprayed evenly with 50 ml of 0.5 mM, 1 mM or 2 mM MeJA in water containing 0.1% (v/v) Triton X-100 (Sigma-Aldrich, Mississauga ON, Canada), or with 50 ml of 1 mM arachidonic acid (Girard et al., 2007) in the same solvent, and transferred for seven days in a Conviron growth chamber (Conviron, Winnipeg MB, Canada). Plants sprayed with 50 ml of 0.1% (v/v) Triton X-100 in water were used in parallel as negative controls to avoid confounding effects due to experimental conditions. […]
Whole leaf proteins were extracted from three 1-cm^2 leaf discs in 400 μl of ice-cold 50 mM Tris-HCl, pH 7.5, containing 150 mM NaCl, by disrupting the leaf samples with tungsten carbide beads (Qiagen, Mississauga ON, Canada) in a Mini-Beadbeater apparatus (BioSpec, Bartlesville Okla., USA). […] RuBisCO small subunit was detected using polyclonal IgG raised in rabbit against a synthetic small subunit peptide (Agrisera, Vännäs, Sweden) and alkaline phosphatase-conjugated goat anti-rabbit IgG as secondary antibodies (Sigma-Aldrich). RuBisCO large subunit was detected using polyclonal IgG raised in hen against a synthetic large subunit peptide (Agrisera) and alkaline phosphatase-conjugated goat anti-chicken IgG as secondary antibodies (Sigma-Aldrich). […]

[5] = system: 33-kDa pathogen-inducible PR-2 protein; experiment: 33-kDa PR-2 protein accumulation, immunodetection and densitometry; assay type: in vivo, Nicotiana benthamiana; conditions: non-infiltrated leaves; sprayed at 0.5 or 1 mM; ANOVA P>0.05
Text: FIGS. 2a-2c show the effect of MeJA treatment on PR-2 protein accumulation, agrobacteria numbers and transcript numbers of the two A. tumefaciens virulence proteins VirB1 and VirE1 in N. benthamiana leaves. […] Immunoblot signals were quantified using the Phoretix 2-D Expression software v. 2005 (NonLinear USA) after scanning nitrocellulose membranes with a Microtek ScanMaker II digitalizer (Microtek Laboratory). Data are the mean of three leaf replicates±SE. An arbitrary value of 1.0 was assigned to PR-2 level in control healthy leaves. […] Data are expressed as log numbers of colony-forming units (CFU) on agar plates and each point is the mean of five independent (leaf replicate) values±SE. […]
Whole leaf proteins were extracted from three 1-cm^2 leaf discs in 400 μl of ice-cold 50 mM Tris-HCl, pH 7.5, containing 150 mM NaCl, by disrupting the leaf samples with tungsten carbide beads (Qiagen, Mississauga ON, Canada) in a Mini-Beadbeater apparatus (BioSpec, Bartlesville Okla., USA). […] RuBisCO small subunit was detected using polyclonal IgG raised in rabbit against a synthetic small subunit peptide (Agrisera, Vännäs, Sweden) and alkaline phosphatase-conjugated goat anti-rabbit IgG as secondary antibodies (Sigma-Aldrich). […] C5-1 light and heavy chains were detected with alkaline phosphatase-conjugated goat anti-mouse IgG antibodies (Sigma-Aldrich).

CC/C=C\C[C@H]1C(=O)CC[C@@H]1CC(=O)OC [MeJA, methyl jasmonate]
C5-1 protein band patterns on immunoblot compared to control plants [1]: increased intensity | mRNA transcript numbers for C5-1 light and heavy chains compared with control leaf extracts [2]: about twofold | VirB1 mRNA transcripts versus control leaves [3]: negatively altered; also recorded: significantly lower value | up-regulation of proteins on Coomassie blue-stained gels [4]: up-regulation of several proteins | expression of 33-kDa PR-2 protein [5]: no significant effect
